# Patent US4923888A, “Butenoic acid amides, their salts, and pharmaceutical compositions containing them” (Richter Gedeon Vegyeszeti Gyar RT, priority 1987, dated 1990)
# Assays:
# chronic stomach ulcer = assay: acetic acid-induced chronic stomach ulcer model (promoting the healing); type: in vivo, rats; conditions: for Ulcer index: ± S.E.M
# Protocol: The investigation of (the effect promoting the healing of) the chronic stomach ulcer induced by acetic acid was carried out as follows. In the course of examining the healing-promoting effect, one of the most widely used methods namely, the so-called acetic acid-induced chronic stomach ulcer model was used [Takagi et. al.: Jap. […] The abdominal wall of anaesthetized rats was opened and 50 μl of a 20% acetic acid solution were injected into the stomach wall, then the abdominal wall of the animal was sutured. The treatment by the test compounds was started on day 5 following the surgical operation and continued until day 14 by using the daily doses shown in Table 2. Then, the animals were killed and their stomachs were examined. The extent of ulceration was assessed by measuring the diameter of the ulcer, wherefrom the size of the damaged area could be calculated. For characterizing the degree of the cicatrization, the change in the ulcer index measured in the treated animals was related to the values measured in the untreated (control) animals and expressed as percentage values.
# [1] = test system: glandular part of the stomach; assay: acid-ethanol test (cytoprotective action, method of A. Robert); type: in vivo, rats; conditions: oral; for ED50: Rattus norvegicus, acid-ethanol test, starved rats, read-out: Cytoprotective effect ED50
# Excerpt: Starved rats were given absolute ethanol containing concentrated hydrochloric acid which induced longitudinal bleedings in the glandular part of the stomach within a short time. This damaging effect is prevented by cytoprotective substances.
# The oral ED50 values of some compounds according to the invention, which were examined in the acid-ethanol test, are shown in Table 1.
# oral toxicity = type: in vivo
# [2] = 10 × 10 mg/kg/day p.o., Table 2
# [3] = 10 × 10 mg/kg/day p.o., P <0.01 vs control (C only)
# [4] = 50 × 10 mg/kg/day p.o., Table 3
molecule,measurement,setting,value
Sucralfate [reference compound],Change in the ulcer index related to the control (promotion of the healing),"chronic stomach ulcer; 500 × 10 mg/kg/day p.o., Table 3",55%
"CCOC(=O)CC(NC(=O)/C=C/C(=O)c1ccccc1)C(=O)OCC (racemic) [B, diethyl N-[4-oxo-4-phenyl-2(E)-butenoyl]-(RS)-aspartate]",Change in the ulcer index related to the control (promotion of the healing),chronic stomach ulcer; [2],34%
same,Ulcer index,chronic stomach ulcer; [3],7.7 ± 2.8 mm^2 /stomach
same,Change in the ulcer index related to the control (promotion of the healing),"chronic stomach ulcer; 30 × 10 mg/kg/day p.o., Table 2",63%
same,Ulcer index,"chronic stomach ulcer; 30 × 10 mg/kg/day p.o., P <0.01 vs control (B)",4.2 ± 1.8 mm^2 /stomach
same,difference between the healing-promoting effects of the R and RS modifications,chronic stomach ulcer; statement on Table 2,highly significant difference
same,ED50,[1],2.6 mg/kg
"CN1CCN(CC(=O)N2c3ccccc3C(=O)Nc3cccnc32)CC1 [Pirenzepine, reference compound]",Change in the ulcer index related to the control (promotion of the healing),"chronic stomach ulcer; 12 × 10 mg/kg/day p.o., Table 3",13%
"NC[C@H]1CC[C@H](C(=O)Oc2ccc(CCC(=O)O)cc2)CC1 [Cetraxate, reference compound]",Change in the ulcer index related to the control (promotion of the healing),"chronic stomach ulcer; 150 × 10 mg/kg/day p.o., Table 3",49%
"C[S+](C)CCC(N)C(=O)O (stereo not shown) [MMSC, Methylmethionine sulfonium chloride, reference compound]",Change in the ulcer index related to the control (promotion of the healing),chronic stomach ulcer; [4],59%
"CCOC(=O)C[C@@H](NC(=O)/C=C/C(=O)c1ccccc1)C(=O)OCC [C, diethyl N-[4-oxo-4-phenyl-2(E)-butenoyl]-(R)-aspartate]",healing of the ulcer accelerated,"chronic stomach ulcer; 3 mg/kg oral dose, statement on Table 2",57%
same,Change in the ulcer index related to the control (delaying of the healing),"chronic stomach ulcer; 1 × 10 mg/kg/day p.o., Table 2",13%
same,Ulcer index,chronic stomach ulcer; 1 × 10 mg/kg/day p.o.,13.1 ± 3.5 mm^2 /stomach
same,Change in the ulcer index related to the control (promotion of the healing),"chronic stomach ulcer; 3 × 10 mg/kg/day p.o., Table 2",57%
same,Ulcer index,"chronic stomach ulcer; 3 × 10 mg/kg/day p.o., P <0.01 vs control",5.0 ± 1.2 mm^2 /stomach
same,Change in the ulcer index related to the control (promotion of the healing),chronic stomach ulcer; [2],77%
same,Ulcer index,chronic stomach ulcer; [3],2.7 ± 1.1 mm^2 /stomach
same,healing-promoting effect compared with reference drugs,chronic stomach ulcer; R isomer vs reference drugs of Table 3,greatly exceeds that of the reference drugs
same,difference between the healing-promoting effects of the R and RS modifications,chronic stomach ulcer; statement on Table 2,highly significant difference
same,"toxicity, oral dose of 1200 mg/kg",oral toxicity,not toxic
same,ED50,[1],1.7 mg/kg
same,"cytoprotective test, comparison in words",[1]; statement on Table 1,most effective
"CC(=O)c1ccc2c(c1)C(=O)C1(CC1)O2 [Spizofuron, reference compound]",Change in the ulcer index related to the control (promotion of the healing),chronic stomach ulcer; [4],11%
"CCOC(=O)C[C@H](NC(=O)/C=C/C(=O)c1ccccc1)C(=O)OCC [A, diethyl N-[4-oxo-4-phenyl-2(E)-butenoyl]-(S)-aspartate]","healing of the ulcer, result in words","chronic stomach ulcer; 40 mg/kg oral dose, statement on Table 2",not promoted
same,Change in the ulcer index related to the control (delaying of the healing),"chronic stomach ulcer; 40 × 10 mg/kg/day p.o., Table 2",11%
same,Ulcer index,chronic stomach ulcer; 40 × 10 mg/kg/day p.o.,13.4 ± 2.1 mm^2 /stomach
same,ED50,[1],3.8 mg/kg
"CN/C(=N/CCSCc1nc[nH]c1C)NC#N [Cimetidine, reference compound]",Change in the ulcer index related to the control (promotion of the healing),chronic stomach ulcer; [4],17%
